# Results from ChEMBL document CHEMBL1201862, “PubChem BioAssay data set” (2004).
# Calls of active or inactive are those of the source.
# Assays:
# [1] = target: Mitogen-activated protein kinase 10 (Homo sapiens, UniProt P53779); experiment: Dose response biochemical screening assay for inhibitors of c-Jun N-Terminal Kinase 3 (JNK3). [Related pubchem assays: 746 ]
# H9c2 = experiment: cells; type: functional, cell-based; details: Rattus norvegicus, H9c2, Myocardium;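 also: confirmatory concentration-response retest of ultra-high-throughput screening hits for modulation of myocardial damage; cell death induced by hydrogen peroxide oxidative stress; compound pretreatment for 60 min then peroxide exposure for 2 h; potency is for protecting the cells against peroxide damage rather than for killing them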
# [2] = target: T1, Mannose-6-phosphate isomerase (Homo sapiens, UniProt P34949); experiment: human PMI inhibitors, high substrate, primary screen, biochemical, fluorescence intensity, high mannose 6-phosphate (AID 1220)
# T1 sequence (P34949 whole entry): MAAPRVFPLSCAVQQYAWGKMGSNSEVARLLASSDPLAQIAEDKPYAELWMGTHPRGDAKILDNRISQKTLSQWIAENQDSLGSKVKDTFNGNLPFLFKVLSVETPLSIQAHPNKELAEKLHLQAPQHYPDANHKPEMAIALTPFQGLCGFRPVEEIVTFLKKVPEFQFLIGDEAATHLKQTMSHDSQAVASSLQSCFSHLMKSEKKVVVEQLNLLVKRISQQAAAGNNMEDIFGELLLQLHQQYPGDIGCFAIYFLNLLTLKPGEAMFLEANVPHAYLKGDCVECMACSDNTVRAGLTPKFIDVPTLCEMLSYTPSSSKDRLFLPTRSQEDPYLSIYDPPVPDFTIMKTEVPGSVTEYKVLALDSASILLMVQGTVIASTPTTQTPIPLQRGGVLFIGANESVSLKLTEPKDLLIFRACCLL
# [3] = Concentration-dependent survival of SW480 colon cancer line, luminescence detection with CellTiter-Glo, half-maximal inhibitory concentration (AID 1117338); type: functional
# [4] = cytotoxicity toward HCT116 cells – cell-based, CellTiter-Glo luminescence, IC50, dose response (AID 1117332); type: functional; details: HCT-116
# [5] = HeLa 4N DNA content increase, dose response, cell-based, IC50 (AID 1117351); type: functional
# [6] = RKO cell viability reduction, dose response, CellTiter-Glo luminescence (AID 1117322); type: functional
# [7] = cytotoxicity toward Colo320 cells – cell-based, CellTiter-Glo luminescence, IC50, dose response (AID 1117334); type: functional; details: COLO 320
# [8] = SNU-C1 cell viability reduction, dose response, CellTiter-Glo luminescence (AID 1117323); type: functional, cell-based
# [9] = HeLa 2N DNA content increase, dose response, cell-based, IC50 (AID 1117349); type: functional
# [10] = cytotoxicity toward HT-29 cells – cell-based, CellTiter-Glo luminescence, IC50, dose response (AID 1117330); type: functional
# [11] = HCT116 cell viability decrease, GSK3B pretreatment – CellTiter-Glo, IC50, dose response (AID 1117339); type: functional; details: HCT-116
# [12] = CellTiter-Glo luminescent dose response of DLD-1 viability loss (AID 1117352); type: functional
# [13] = reduction of Shn3 3'UTR firefly luciferase signal, dose response, Schnurri-3 inhibitor project, cell-based, Clone20 osteoblasts, cherry-pick, set 2 (AID 720490); type: functional;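 also: actives lower the luminescence signal as inhibitors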
# [14] = Shn3 3'UTR reporter inhibitors, dose response, cell-based, Clone20 osteoblasts, firefly luciferase, cherry-picked (AID 624132); type: functional;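 also: firefly luciferase luminescence from reporter carrying the Shn3 3'UTR in osteoblasts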
# [15] = target: T2, Microphthalmia-associated transcription factor (Homo sapiens, UniProt O75030); experiment: TRPM1 promoter luciferase signal decrease, dose response, MITF inhibitor project, cell-based, SK-MEL-5, cherry-picked, set 3 (AID 493073); type: functional
# T2 sequence (O75030 whole entry): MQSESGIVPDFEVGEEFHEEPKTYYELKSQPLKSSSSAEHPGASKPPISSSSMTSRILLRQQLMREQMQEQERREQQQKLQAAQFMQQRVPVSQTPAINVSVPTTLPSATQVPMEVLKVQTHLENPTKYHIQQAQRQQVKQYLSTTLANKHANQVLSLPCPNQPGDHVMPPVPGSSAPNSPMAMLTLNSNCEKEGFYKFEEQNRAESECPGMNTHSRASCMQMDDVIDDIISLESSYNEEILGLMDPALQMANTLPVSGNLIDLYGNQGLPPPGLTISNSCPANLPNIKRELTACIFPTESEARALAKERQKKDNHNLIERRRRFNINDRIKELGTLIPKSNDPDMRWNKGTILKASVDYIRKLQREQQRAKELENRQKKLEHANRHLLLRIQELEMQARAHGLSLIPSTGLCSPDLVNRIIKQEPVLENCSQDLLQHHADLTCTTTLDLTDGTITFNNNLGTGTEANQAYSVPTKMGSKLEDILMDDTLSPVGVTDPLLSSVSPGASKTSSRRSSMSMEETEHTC
# Paired box protein Pax-8 = Paired box protein Pax-8 (Homo sapiens, UniProt Q06710); experiment: inhibitors of PAX8-driven TPO luciferase reporter, dose response, RMG-I cells, cherry-pick (AID 687027); type: functional, cell-based;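 also: luciferase reporter driven by Pax8 target thyroperoxidase promoter measured by SteadyGlo luminescence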
# Sequence of Paired box protein Pax-8 (Q06710 whole entry): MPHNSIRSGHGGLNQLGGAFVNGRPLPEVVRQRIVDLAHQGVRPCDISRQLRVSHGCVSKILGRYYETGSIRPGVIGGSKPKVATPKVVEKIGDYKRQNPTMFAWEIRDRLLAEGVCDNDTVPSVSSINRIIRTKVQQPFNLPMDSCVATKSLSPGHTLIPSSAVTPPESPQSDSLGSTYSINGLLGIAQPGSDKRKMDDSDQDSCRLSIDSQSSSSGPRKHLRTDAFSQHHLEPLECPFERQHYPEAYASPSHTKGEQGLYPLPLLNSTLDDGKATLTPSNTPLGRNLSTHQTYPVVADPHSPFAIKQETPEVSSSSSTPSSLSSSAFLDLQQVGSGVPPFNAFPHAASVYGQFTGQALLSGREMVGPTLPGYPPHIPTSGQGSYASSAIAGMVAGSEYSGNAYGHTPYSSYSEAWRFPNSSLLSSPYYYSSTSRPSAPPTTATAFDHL
# Kallikrein-7 = Kallikrein-7 (Homo sapiens, UniProt P49862); experiment: Fluorescence Intensity-based biochemical primary high throughput dose response assay to identify activators of kallikrein-7 (K7) zymogen.
# Sequence of Kallikrein-7 (P49862 whole entry): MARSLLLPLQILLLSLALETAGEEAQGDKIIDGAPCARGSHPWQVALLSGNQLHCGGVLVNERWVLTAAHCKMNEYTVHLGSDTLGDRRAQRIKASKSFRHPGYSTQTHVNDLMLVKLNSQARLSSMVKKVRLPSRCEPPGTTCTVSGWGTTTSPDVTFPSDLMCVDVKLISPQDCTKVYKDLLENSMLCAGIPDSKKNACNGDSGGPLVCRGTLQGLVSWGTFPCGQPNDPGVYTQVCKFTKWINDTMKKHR
# [16] = HepG2 cell cytotoxicity, dose response, cytotoxicity control for Shn3 inhibitor project, CellTiter-Glo, cherry-picked (AID 624134); type: functional, cell-based
# [17] = ZM109 Env clade C HIV-1 fusion inhibitors, dose response, HeLa effector, CEM target cells, luciferase, cherry-pick (AID 652058); type: functional, cell-based
# [18] = control 3'UTR Renilla luciferase suppression, dose response, counter-screen for Shn3 inhibitor project, cell-based, Clone20-Shn3RL, cherry-picked (AID 624133); type: functional
# [19] = off-target signal loss in HeLa-CEM21 co-culture – HeLa F-luc CTL cells, cherry-picked, counter-screen for HIV-1 Env fusion inhibitor project, dose response (AID 652040); type: functional, cell-based;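 also: potency for signal decrease marking cytotoxic or nonspecific inhibition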
# [20] = inhibitors of HIV Env-driven cell fusion, dose response, cherry-pick (AID 652057); type: functional, cell-based
# [21] = inhibitors of clade B AD8 Env fusion, dose response, cell-based, cherry-pick (AID 652062); type: functional;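 also: luciferase signal from cell-cell fusion driven by HIV-1 clade B AD8 Env; potency is for inhibitors of fusion seen as a drop in luminescence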
# cells = type: functional
# [22] = target: Glutathione-S-transferase (Schistosoma japonicum, UniProt Q26513); experiment: biotin-GST/anti-GST TR-FRET signal inhibitors, dose response, artefact control for Vif-APOBEC3G degradation inhibitor project, biochemical (AID 1117362); type: functional
# Sequence of Glutathione-S-transferase (Q26513 whole entry): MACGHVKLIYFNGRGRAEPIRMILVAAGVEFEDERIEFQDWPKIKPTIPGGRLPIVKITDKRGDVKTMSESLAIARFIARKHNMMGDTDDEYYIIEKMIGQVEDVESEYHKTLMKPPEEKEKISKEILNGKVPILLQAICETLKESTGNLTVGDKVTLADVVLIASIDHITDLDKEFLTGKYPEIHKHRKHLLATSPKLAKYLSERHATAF
# Nonstructural protein 1 = Nonstructural protein 1 (Influenza A virus, UniProt Q194T2); type: functional, Influenza A virus (A/California/07/2009(H1N1))
# Sequence of Nonstructural protein 1 (Q194T2 whole entry): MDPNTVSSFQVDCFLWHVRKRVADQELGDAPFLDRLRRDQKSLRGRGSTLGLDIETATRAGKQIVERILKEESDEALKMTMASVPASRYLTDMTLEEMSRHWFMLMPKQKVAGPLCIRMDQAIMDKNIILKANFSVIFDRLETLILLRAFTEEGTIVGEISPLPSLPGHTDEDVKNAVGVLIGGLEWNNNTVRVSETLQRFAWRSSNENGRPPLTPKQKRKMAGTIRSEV
# [23] = target: Ras and Rab interactor 1/Tyrosine-protein kinase ABL1 (Homo sapiens, UniProt P00519+Q13671); type: functional;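 also: biochemical TR-FRET dose-response test measuring inhibition of binding between Rin1 and Abl proteins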
# Sequence of Ras and Rab interactor 1/Tyrosine-protein kinase ABL1 (P00519 whole entry, the tested form may be a part): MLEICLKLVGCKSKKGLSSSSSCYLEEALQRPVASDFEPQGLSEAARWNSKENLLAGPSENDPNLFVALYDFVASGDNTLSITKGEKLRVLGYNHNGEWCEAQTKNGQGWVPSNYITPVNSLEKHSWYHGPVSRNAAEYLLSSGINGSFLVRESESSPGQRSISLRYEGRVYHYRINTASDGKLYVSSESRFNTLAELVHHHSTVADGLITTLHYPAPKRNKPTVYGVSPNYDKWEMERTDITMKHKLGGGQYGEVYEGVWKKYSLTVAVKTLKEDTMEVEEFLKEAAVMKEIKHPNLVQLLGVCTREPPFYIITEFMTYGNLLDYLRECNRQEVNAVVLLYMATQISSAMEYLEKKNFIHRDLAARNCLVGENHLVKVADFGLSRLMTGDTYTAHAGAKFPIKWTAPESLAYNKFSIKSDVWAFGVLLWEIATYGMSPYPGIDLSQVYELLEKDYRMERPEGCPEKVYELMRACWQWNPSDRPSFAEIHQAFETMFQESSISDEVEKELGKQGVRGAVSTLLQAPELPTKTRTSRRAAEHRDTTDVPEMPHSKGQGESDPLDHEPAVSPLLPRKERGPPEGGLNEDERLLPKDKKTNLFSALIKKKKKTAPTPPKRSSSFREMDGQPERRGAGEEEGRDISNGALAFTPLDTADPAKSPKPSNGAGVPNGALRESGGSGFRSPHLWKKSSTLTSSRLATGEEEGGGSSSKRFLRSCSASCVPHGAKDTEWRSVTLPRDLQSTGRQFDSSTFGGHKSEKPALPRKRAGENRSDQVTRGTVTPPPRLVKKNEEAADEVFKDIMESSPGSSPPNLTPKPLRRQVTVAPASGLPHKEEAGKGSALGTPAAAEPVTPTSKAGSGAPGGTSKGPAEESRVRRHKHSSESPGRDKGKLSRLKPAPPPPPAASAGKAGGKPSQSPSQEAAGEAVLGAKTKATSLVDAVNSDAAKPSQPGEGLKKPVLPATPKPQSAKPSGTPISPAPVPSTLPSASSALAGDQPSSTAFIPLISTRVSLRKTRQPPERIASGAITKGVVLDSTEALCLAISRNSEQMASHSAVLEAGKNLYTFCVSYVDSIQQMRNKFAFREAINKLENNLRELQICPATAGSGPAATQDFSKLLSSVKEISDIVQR
# Sequence of Ras and Rab interactor 1/Tyrosine-protein kinase ABL1 (Q13671 whole entry, the tested form may be a part): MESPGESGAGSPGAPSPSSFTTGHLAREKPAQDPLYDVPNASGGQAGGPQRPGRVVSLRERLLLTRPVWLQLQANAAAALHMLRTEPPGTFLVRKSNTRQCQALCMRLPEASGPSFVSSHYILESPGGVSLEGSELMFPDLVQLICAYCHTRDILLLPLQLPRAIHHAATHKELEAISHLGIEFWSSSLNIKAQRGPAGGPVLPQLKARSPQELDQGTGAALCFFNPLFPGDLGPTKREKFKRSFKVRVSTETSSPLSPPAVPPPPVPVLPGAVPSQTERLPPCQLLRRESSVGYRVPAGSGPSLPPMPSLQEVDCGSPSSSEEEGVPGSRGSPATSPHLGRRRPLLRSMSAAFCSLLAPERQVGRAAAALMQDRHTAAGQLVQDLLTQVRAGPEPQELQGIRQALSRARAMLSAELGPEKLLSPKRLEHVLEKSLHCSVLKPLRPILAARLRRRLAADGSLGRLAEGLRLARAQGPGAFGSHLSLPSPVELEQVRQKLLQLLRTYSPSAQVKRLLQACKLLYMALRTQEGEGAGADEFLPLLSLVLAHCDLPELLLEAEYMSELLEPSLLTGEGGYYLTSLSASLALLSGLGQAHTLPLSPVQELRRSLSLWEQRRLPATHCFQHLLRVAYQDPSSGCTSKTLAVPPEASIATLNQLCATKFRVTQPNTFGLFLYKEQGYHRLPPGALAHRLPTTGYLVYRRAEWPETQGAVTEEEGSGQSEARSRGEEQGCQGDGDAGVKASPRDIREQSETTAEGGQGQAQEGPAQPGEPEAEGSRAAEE
# [24] = target: T3, Carboxy-terminal domain RNA polymerase II polypeptide A small phosphatase 1 (Homo sapiens, UniProt Q9GZU7); experiment: inhibitors of CTDSP1, concentration-response testing, biochemical assay, absorbance-based, actives from ultra-high-throughput screening (AID 540297); type: functional
# T3 sequence (Q9GZU7 whole entry): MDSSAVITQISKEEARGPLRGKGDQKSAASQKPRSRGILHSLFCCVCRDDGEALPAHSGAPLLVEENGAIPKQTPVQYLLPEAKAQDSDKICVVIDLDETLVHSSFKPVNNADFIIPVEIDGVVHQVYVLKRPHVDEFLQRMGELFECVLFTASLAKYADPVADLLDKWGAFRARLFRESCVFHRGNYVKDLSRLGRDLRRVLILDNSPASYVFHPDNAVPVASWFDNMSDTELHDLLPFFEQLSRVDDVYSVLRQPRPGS
# [25] = target: T4, RNA-binding protein pos-1 (Caenorhabditis elegans, UniProt G5EF15); experiment: inhibitors of POS-1/mex-3 RNA binding, dose response, biochemical, fluorescence polarization (AID 1964);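 also: purified POS-1 fused to maltose binding protein made in E. coli; potency of compounds blocking POS-1 binding to fluorescent RNA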
# T4 sequence (G5EF15 whole entry): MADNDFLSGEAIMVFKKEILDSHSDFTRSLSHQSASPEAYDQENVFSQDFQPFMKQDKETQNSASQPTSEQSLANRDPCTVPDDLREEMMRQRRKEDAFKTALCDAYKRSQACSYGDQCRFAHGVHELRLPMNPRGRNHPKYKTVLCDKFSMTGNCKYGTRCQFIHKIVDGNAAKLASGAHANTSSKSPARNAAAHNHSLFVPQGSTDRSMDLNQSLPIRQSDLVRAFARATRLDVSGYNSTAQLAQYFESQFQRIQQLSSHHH
# [26] = target: Glucose-6-phosphate 1-dehydrogenase (Homo sapiens, UniProt P11413); experiment: human G6PD enzyme inhibitors, dose response, selectivity assay for P. falciparum G6PD inhibitor project, biochemical, fluorescence (AID 504792); type: functional
# [27] = target: 1-phosphatidylinositol 4,5-bisphosphate phosphodiesterase gamma-1 (Homo sapiens, UniProt P19174); experiment: Counterscreen for inhibitors of phospholipase C isozymes (PLC-B3): Fluorescence-based biochemical high throughput dose response assay to identify inhibitors of phospholipase C isozymes (PLC-gamma1).
# Sequence of 1-phosphatidylinositol 4,5-bisphosphate phosphodiesterase gamma-1 (P19174 whole entry): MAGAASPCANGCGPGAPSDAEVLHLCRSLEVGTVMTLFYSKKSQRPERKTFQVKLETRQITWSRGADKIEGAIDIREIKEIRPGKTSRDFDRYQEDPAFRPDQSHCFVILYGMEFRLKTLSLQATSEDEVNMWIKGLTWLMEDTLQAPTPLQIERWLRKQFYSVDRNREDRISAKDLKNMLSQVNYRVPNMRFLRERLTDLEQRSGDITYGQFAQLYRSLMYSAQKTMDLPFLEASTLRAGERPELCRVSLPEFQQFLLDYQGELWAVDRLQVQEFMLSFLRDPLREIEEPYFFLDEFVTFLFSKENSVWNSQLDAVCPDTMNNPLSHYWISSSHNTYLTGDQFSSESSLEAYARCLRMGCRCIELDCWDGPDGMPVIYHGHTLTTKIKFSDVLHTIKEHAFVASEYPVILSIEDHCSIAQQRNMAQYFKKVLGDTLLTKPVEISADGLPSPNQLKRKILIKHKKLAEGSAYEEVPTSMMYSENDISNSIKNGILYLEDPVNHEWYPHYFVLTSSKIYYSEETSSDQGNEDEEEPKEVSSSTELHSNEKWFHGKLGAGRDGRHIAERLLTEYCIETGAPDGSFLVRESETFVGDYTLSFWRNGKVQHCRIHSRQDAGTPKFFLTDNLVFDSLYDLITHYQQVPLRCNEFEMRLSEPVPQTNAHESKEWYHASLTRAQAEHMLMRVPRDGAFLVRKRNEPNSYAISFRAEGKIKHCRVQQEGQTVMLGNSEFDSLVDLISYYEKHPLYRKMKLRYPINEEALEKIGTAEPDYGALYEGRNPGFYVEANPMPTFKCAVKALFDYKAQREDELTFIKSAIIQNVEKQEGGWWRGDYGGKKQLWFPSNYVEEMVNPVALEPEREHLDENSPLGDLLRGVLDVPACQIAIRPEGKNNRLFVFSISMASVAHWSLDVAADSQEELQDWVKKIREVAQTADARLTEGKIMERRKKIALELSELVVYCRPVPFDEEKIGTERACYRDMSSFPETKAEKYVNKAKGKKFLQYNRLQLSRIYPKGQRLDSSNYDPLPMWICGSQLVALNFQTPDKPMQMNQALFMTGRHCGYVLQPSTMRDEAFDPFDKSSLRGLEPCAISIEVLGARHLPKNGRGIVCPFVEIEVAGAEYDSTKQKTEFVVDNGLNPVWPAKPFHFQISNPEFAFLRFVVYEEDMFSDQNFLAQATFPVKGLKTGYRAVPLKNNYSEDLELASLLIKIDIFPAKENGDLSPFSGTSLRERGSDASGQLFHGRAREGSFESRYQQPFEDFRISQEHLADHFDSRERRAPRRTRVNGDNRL
# [28] = target: 1-phosphatidylinositol 4,5-bisphosphate phosphodiesterase beta-3 (Homo sapiens, UniProt Q01970); experiment: Fluorescence-based biochemical high throughput dose response assay to identify inhibitors of phospholipase C isozymes (PLC-B3).
# [29] = target: T5, Zinc finger protein mex-5 (Caenorhabditis elegans, UniProt Q9XUB2); experiment: MEX-5/TCR-2 RNA interaction inhibitors, dose response, biochemical, C. elegans, fluorescence polarization (AID 1960)
# T5 sequence (Q9XUB2 whole entry): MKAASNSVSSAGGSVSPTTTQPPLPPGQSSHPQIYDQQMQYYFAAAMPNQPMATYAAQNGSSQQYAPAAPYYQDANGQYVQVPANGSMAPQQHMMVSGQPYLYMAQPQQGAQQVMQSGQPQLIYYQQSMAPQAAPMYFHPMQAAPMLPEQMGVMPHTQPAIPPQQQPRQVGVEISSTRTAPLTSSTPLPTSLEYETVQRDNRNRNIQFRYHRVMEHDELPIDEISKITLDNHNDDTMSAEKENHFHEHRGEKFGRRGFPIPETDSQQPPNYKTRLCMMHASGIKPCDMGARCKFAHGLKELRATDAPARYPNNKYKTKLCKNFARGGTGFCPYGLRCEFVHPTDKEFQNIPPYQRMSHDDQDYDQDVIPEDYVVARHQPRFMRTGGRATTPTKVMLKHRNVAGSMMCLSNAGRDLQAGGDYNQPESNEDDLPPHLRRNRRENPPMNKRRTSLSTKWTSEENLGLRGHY
# Sequence of Mitogen-activated protein kinase 10 (P53779 whole entry): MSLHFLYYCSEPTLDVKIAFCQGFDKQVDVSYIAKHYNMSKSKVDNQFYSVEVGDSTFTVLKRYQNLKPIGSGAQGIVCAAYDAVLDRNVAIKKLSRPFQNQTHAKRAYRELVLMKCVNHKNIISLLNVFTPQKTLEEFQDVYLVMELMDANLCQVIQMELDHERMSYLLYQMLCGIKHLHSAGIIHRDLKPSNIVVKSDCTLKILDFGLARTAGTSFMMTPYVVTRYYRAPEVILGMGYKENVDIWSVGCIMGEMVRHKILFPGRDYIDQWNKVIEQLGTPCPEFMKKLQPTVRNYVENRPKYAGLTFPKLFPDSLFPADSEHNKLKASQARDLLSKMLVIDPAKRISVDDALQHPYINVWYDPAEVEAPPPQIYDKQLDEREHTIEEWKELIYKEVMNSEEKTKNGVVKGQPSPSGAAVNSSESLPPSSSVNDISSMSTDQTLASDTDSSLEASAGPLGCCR
structure (smiles),measurement,setting,value
CCOc1cccc(NC(=O)C2CCCN(S(=O)(=O)c3ccc(-n4cnnn4)cc3)C2)c1 (centres undefined),IC50,[1],> 93.1 µM (not active)
COC(=O)c1cccc(NC(=O)CN2CCC(NC(=O)c3cc(OC)c(OC)c(OC)c3)CC2)c1,IC50,[1],1.7 µM (active)
Fc1ccc(NC(S)=Nc2ccc3nccnc3c2)cc1,IC50,H9c2,22.5 µM (active)
same,IC50,[2],> 50 µM (not active)
Cc1ccc2nc(N)[nH]c(=O)c2c1Sc1ccncc1,IC50,[3],2.24 µM (active)
same,IC50,[4],3.5 µM (active)
same,IC50,[5],> 10 µM (inactive)
same,IC50,[6],0.343 µM (active)
same,IC50,[7],> 20 µM (inactive)
same,IC50,[8],> 20 µM (inactive)
same,IC50,[9],> 10 µM (inactive)
same,IC50,[10],4.75 µM (active)
same,IC50,[11],0.83 µM (active)
same,IC50,[12],> 20 µM (inactive)
Cc1ccc(-c2cn3cc(C)ccc3n2)cc1,AC50,[13],7.73 µM (active)
same,AC50,[14],1.32 µM (active)
same,AC50,[15],2.03 µM (active)
same,AC50,Paired box protein Pax-8,3.46 µM (active)
CCN1CCN(c2cc(C)c3cc(NC(=O)c4ccc(C)c(C)c4)ccc3n2)CC1,EC50,Kallikrein-7,17.2 µM (inactive)
CCOc1ccc(N(C)S(=O)(=O)c2cc(-c3cc(C)no3)ccc2C(C)C)cc1,AC50,[16],58.4 µM (active)
same,AC50,[17],3 µM (active)
same,AC50,[18],16.7 µM (active)
same,AC50,[13],5.22 µM (active)
same,AC50,[19],1.27 µM (active)
same,AC50,[20],1.32 µM (active)
same,AC50,[14],4.13 µM (active)
same,AC50,[21],7.87 µM (active)
CCOC(=O)COc1ccc2c(c1)C(=O)CC1(CCCCC1)O2,IC50,cells,1.18 µM (active)
same,EC50,Kallikrein-7,> 69.5 µM (inactive)
CC[n+]1ccc(C)c2cc([S+]([O-])C(F)(F)F)ccc21 (centres undefined),IC50,[22],55.4 µM (active)
COc1c(C)c2c(c(O)c1C/C=C(\C)CCC(=O)OCCN1CCOCC1)C(=O)OC2 [MYCOPHENOLATE MOFETIL],IC50,[3],2.6 µM (active)
same,IC50,[4],0.0672 µM (active)
same,IC50,[5],> 10 µM (inactive)
same,IC50,[6],0.165 µM (active)
same,IC50,[7],0.001 µM (active)
same,IC50,[8],> 20 µM (inactive)
same,IC50,[9],> 10 µM (inactive)
same,IC50,[10],> 20 µM (inactive)
same,IC50,[11],0.0498 µM (active)
same,IC50,[12],> 20 µM (inactive)
Cc1c(F)cccc1NC(=O)CCCCCC1NC(=O)NC1C (centres undefined),IC50,[22],29.8 µM (active)
same,IC50,Nonstructural protein 1,1.18 µM (active)
same,IC50,[23],0.0143 µM (active)
O=C(O)c1ccc(-n2c(-c3cc(-c4ccco4)[nH]n3)n[nH]c2=S)cc1,IC50,[24],1.59 µM (active)
same,EC50,[25],4.19 µM (inconclusive)
same,IC50,[26],> 80 µM (inactive)
same,IC50,[27],102 µM (inactive)
same,IC50,[28],> 122 µM (inactive)
same,EC50,[29],4.74 µM (inconclusive)
